From ChEMBL document CHEMBL1123107, “Synthesis, stereochemistry, and analgesic activity of 4-mono- and 4,4-disubstituted 1,2,3,4,5,6-hexahydro-2,6-methano-3-benzazocines” (1985) come the findings set out here.

Activity calls are given as the source filed them. The calls are words filed in the database; no cut-off is given here.

The species named for the first experiment is Mus musculus. Briefly: Compound was evaluated for analgesic activity in a mouse hotplate test. It is filed as functional.
Regarding `CC1CC2(C)CC(Cc3ccc(O)cc32)N1C` (centres undefined), the ED50 was found to be 1.1 mg/kg. `CC1CC2(C)c3ccccc3CC(C2C)N1C` (centres undefined) returned a median effective dose (ED50) of 14.8 mg/kg. The compound `C=CC[C@]1(C)CC2(C)CC(Cc3ccccc32)N1C` (some centres undefined) gave a 50% effective dose (ED50) of 3.7 mg/kg. Same read-out and setting: the figure for `C=CCN1C(C)CC2(C)CC1Cc1ccc(O)cc12` (centres undefined) is 4.2 mg/kg. Still for that read-out and setting: the figure for `CN1CC[C@]23c4c5ccc(O)c4O[C@H]2[C@@H](O)C=C[C@H]3[C@H]1C5.CN1CC[C@]23c4c5ccc(O)c4O[C@H]2[C@@H](O)C=C[C@H]3[C@H]1C5.O=S(=O)(O)O` is 1.2 mg/kg; for `C[C@@H]1CC2(C)CC(Cc3ccccc32)N1C` (some centres undefined) it is 10.6 mg/kg; for `CC1CC2(C)CC(Cc3ccc(O)cc32)N1CC1CC1` (centres undefined) it is 2.4 mg/kg. The same measure, in the same setting: then `C[C@H]1CC2(C)CC(Cc3ccccc32)N1C` (some centres undefined), with 24.7 mg/kg.

For a further experiment, the system named is Mus musculus. Briefly: Compound was evaluated for analgesic activity in a mouse hotplate test; IA= Inactive at the dose level of 20 mg/kg. More on the design: dose 20 mg/kg. The experiment is classed as functional, organism-based.
With `C=CC[C@@]1(C)CC2(C)CC(Cc3ccccc32)N1C` (some centres undefined), the ED50 entry was “inactive”. On to `CCC1CC2(C)c3ccccc3CC(C2C)N1C` (centres undefined), for which the ED50 entry was “inactive”.

A further experiment deals with Mus musculus. Briefly: Compound was evaluated for analgesic activity in a mouse hotplate test; IA= Inactive at the dose level of 50 mg/kg. More on the design: dose 50 mg/kg. It is filed as functional, organism-based.
For `CC1CN(C)C2Cc3ccc(O)cc3C1(C)C2` (centres undefined), the ED50 result is “inactive”.

The species named for another experiment is Mus musculus. Briefly: Compound was evaluated for analgesic activity in a mouse hotplate test; b= low level of activity exhibited which did not follow a dose-response relationship. It is filed as functional, organism-based.
As for `CN1C2Cc3ccccc3C(C)(C2)CC1(C)Cc1ccccc1` (centres undefined), the ED50 result is reported as “Low level of activity”. With `CC1C2Cc3ccccc3C1(C)CC(Cc1ccccc1)N2C` (centres undefined), the median effective dose (ED50) entry is on record as “Low level of activity”. Consider `CC1C2Cc3ccccc3C1(C)CC(CCc1ccccc1)N2C` (centres undefined), for which the ED50 entry was “Low level of activity”.

As usually defined, the ED50 is the midpoint of the dose-response relation.
